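Results reflect a 48-hour exposure of cells in 96-well plates to compound at five concentrations. GI50 is the concentration that inhibits growth by half.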 The source made the active and inactive calls. Cut-off read from the data, not from the text of the source: active = GI50 up to about 1.1 µM and inactive = higher.

The text below walks through data of ChEMBL document CHEMBL1201862, “PubChem BioAssay data set” (2004).

Experiment in all cases: NCI anticancer screen, dose series, 48 h
Experiment [1] relates to CAKI-1.
Experiment [2] relates to CCRF-CEM.
Experiment [3] deals with HL-60.
In experiment [4] the test system is IGROV-1.
For experiment [5], the system named is LOX IMVI.
For experiment [6], the system named is M14.
Experiment [7] has as its system MOLT-4.
The test system of experiment [8] is Malme-3M.
The test system of experiment [9] is OVCAR-3.
In experiment [10] the test system is OVCAR-5.
Experiment [11] deals with SF-268.
Experiment [12] deals with SK-MEL-5.
Experiment [13] concerns SN12C.
The test system of experiment [14] is SNB-19.
Experiment [15] concerns SNB-75.
Experiment [16] concerns SW-620.
The subject of experiment [17] is U-251.
Experiment [18] deals with UACC-62.
Experiment [19] has as its system UO-31.
In experiment [20] the test system is HOP-92.

`CCCCn1cc[n+](-c2nc3ccccc3n2C)c1`: the GI50 in experiment [1], in [2], in experiment [3], in experiment [4], in [5] and in [6] was > 100 µM (inactive) throughout. For the same compound, the GI50 in [7] is > 100 µM (inactive); in experiment [8], > 100 µM (inactive); in experiment [9], > 100 µM (inactive); in experiment [10] it was > 100 µM (inactive); in experiment [11], > 10 µM (inactive); in experiment [12], > 100 µM (inactive). Moreover, the GI50 in [13] is > 100 µM (inactive); in [14], > 100 µM (inactive); in [15], 45.4 µM (inactive); in [16], > 100 µM (inactive); in [17], > 100 µM (inactive); in [18], > 100 µM (inactive). Further, in experiment [19], the GI50 was > 100 µM (inactive).
For `C=CC1(c2ccc3ccccc3c2)OCC(CC)O1` (stereo unspecified), the GI50 is 29.6 µM (inactive) in [2]; 4.37 µM (inactive) in [3]; 36.7 µM (inactive) in experiment [20]; 33.9 µM (inactive) in experiment [4]; 21.8 µM (inactive) in experiment [5]; 61.1 µM (inactive) in experiment [6]. Also, the GI50 in [7] was 25.6 µM (inactive); in experiment [8] it was 30.5 µM (inactive); in experiment [9], 47 µM (inactive); in [10], 48.9 µM (inactive); in experiment [11], 71.6 µM (inactive); in experiment [12], 47 µM (inactive). Moreover, the GI50 in experiment [13] was 36.7 µM (inactive); in experiment [14], 94 µM (inactive); in experiment [15], 30 µM (inactive); in [16] it was 46.2 µM (inactive); in experiment [17], 57 µM (inactive); in [18] it was 13.6 µM (inactive). In addition, the GI50 in experiment [19] was 63.5 µM (inactive).
With `COc1ccc(C(O)/C(=N\NC(N)=S)c2nc3ccc([N+](=O)[O-])cc3nc2O)cc1OC` (stereo unspecified), the GI50 in [2], in experiment [3], in experiment [20], in [4], in experiment [5] and in experiment [6] was > 100 µM (inactive) in each case. Besides, the GI50 in [7] is 78.3 µM (inactive); in [8], > 100 µM (inactive); in [10] it was > 100 µM (inactive); in experiment [11], > 100 µM (inactive); in experiment [15], > 100 µM (inactive); in [16], > 100 µM (inactive). Further, the GI50 in experiment [17], in experiment [18] and in [19] was > 100 µM (inactive) in each case.
In the case of `CCCc1c(-c2ccccc2)[nH]c2ccccc2c1=O`, the GI50 in [2] was 41.3 µM (inactive); in experiment [3] it was > 100 µM (inactive); in experiment [20], > 100 µM (inactive); in [4] it was > 100 µM (inactive); in experiment [5], 23.9 µM (inactive); in experiment [6], 36.2 µM (inactive). The GI50 in experiment [7] is > 100 µM (inactive); in experiment [8], 33 µM (inactive); in [9], 31.5 µM (inactive); in [10], 45 µM (inactive); in experiment [11] it was 72.4 µM (inactive); in [13] it was 89.1 µM (inactive). In addition, the GI50 in [14] is 65.2 µM (inactive); in experiment [16], > 100 µM (inactive); in [17], 51.3 µM (inactive); in [18] it was 40.5 µM (inactive); in experiment [19], 19.2 µM (inactive).
In the case of `COc1ccc(/C=C2/C(=O)N(C(=O)c3ccccc3O)N=C2C)cc1`, the GI50 in [1] is 0.0962 µM (active); in experiment [2], 0.124 µM (active); in [3], 0.292 µM (active); in [20] it was 0.0441 µM (active); in experiment [4], 0.0234 µM (active); in [5] it was 0.28 µM (active). In addition, the GI50 in [6] was 16.4 µM (inactive); in experiment [7], 0.244 µM (active); in [9] it was 0.338 µM (active); in [10], 11.2 µM (inactive); in experiment [11], 0.202 µM (active); in experiment [12], 0.218 µM (active). The GI50 was 0.65 µM (active) in experiment [13]; 0.0484 µM (active) in experiment [14]; 1.44 µM (inactive) in [16]; 0.0692 µM (active) in [17]; 0.0968 µM (active) in [18]; 0.0445 µM (active) in experiment [19].
As for `COc1cc2c(cc1OC)C1Cc3cc(OC)c(OC)cc3C(C2)O1`, the GI50 was 44.9 µM (inactive) in [1]; 60.1 µM (inactive) in experiment [2]; > 100 µM (inactive) in experiment [20]; 49.8 µM (inactive) in [4]; > 100 µM (inactive) in [5]; > 100 µM (inactive) in experiment [6]. Besides, the GI50 in experiment [7] is 49.1 µM (inactive); in [9] it was > 100 µM (inactive); in experiment [10], > 100 µM (inactive); in experiment [11], > 100 µM (inactive); in [13] it was > 100 µM (inactive); in experiment [14] it was > 100 µM (inactive). The GI50 in experiment [15] is > 100 µM (inactive); in [16] it was > 100 µM (inactive); in experiment [17], > 100 µM (inactive); in [18] it was > 100 µM (inactive); in experiment [19], 83.8 µM (inactive).
Take `CC(C)(CCCCC(C)(C)C1NC(=O)N1)C1NC(=O)N1`: the GI50 in experiment [1], in experiment [2], in [3], in experiment [4], in experiment [5] and in experiment [6] was > 10 µM (inactive) each time. Moreover, the GI50 in [7], in experiment [8], in [10], in experiment [11], in experiment [12] and in [13] was > 10 µM (inactive) each time. Besides, the GI50 is > 10 µM (inactive) in experiment [14]; > 10 µM (inactive) in experiment [15]; > 10 µM (inactive) in experiment [16]; > 10 µM (inactive) in experiment [17]; > 10 µM (inactive) in experiment [18]; 5.05 µM (inactive) in experiment [19].
`Cc1cc(C)c(NC(=O)/C=C/c2ccccc2)c(C)c1`: the GI50 is > 100 µM (inactive) in experiment [2]; 36.1 µM (inactive) in experiment [3]; 56.6 µM (inactive) in [20]; > 100 µM (inactive) in experiment [4]; > 100 µM (inactive) in experiment [6]; 7.64 µM (inactive) in experiment [7]. Further, the GI50 in experiment [9] was > 100 µM (inactive); in experiment [10], > 100 µM (inactive); in [11], > 100 µM (inactive); in experiment [14], 61.9 µM (inactive); in experiment [15], 3.93 µM (inactive); in experiment [16], > 100 µM (inactive). Besides, the GI50 was > 100 µM (inactive) in experiment [17], 22.9 µM (inactive) in experiment [18] and > 100 µM (inactive) in [19].
Take `N#CCCN(c1ccc(/C=N/c2cccc([N+](=O)[O-])c2)cc1)S(=O)(=O)c1ccccc1`: the GI50 in experiment [1], in [2], in experiment [3], in [20], in [4] and in [6] was > 100 µM (inactive) each time. For the same compound, the GI50 in experiment [7], in experiment [8], in experiment [9], in experiment [11], in experiment [13] and in experiment [14] was > 100 µM (inactive) each time. Also, the GI50 in experiment [15] is 75.2 µM (inactive); in experiment [16], > 100 µM (inactive); in experiment [18], > 100 µM (inactive); in [19], 36.3 µM (inactive).
For `C#CC(O)(c1nc2ccccc2s1)c1nc2ccccc2s1`, the GI50 was 23.5 µM (inactive) in experiment [1]; 27.4 µM (inactive) in experiment [2]; 21 µM (inactive) in experiment [3]; 16.1 µM (inactive) in [20]; 15.2 µM (inactive) in experiment [4]; 17.8 µM (inactive) in [5]. Further, the GI50 in experiment [6] was 15.5 µM (inactive); in experiment [7], 28.8 µM (inactive); in experiment [8] it was 27 µM (inactive); in [9], 18.1 µM (inactive); in experiment [10], 23.6 µM (inactive); in [11] it was 28.5 µM (inactive). For the same compound, the GI50 is 15.6 µM (inactive) in experiment [12]; 17.8 µM (inactive) in experiment [13]; 36.9 µM (inactive) in [14]; 33.7 µM (inactive) in [16]; 18.7 µM (inactive) in experiment [17]; 12.3 µM (inactive) in experiment [18]. For the same compound, in experiment [19], the GI50 was 15 µM (inactive).
Regarding `c1ccc(Nc2nnc(-c3nsc4ccccc34)o2)cc1`, the GI50 was 71.1 µM (inactive) in experiment [2]; > 100 µM (inactive) in [3]; 19.2 µM (inactive) in experiment [20]; > 100 µM (inactive) in experiment [4]; > 100 µM (inactive) in experiment [5]; > 100 µM (inactive) in experiment [6]. The GI50 in experiment [7] was > 100 µM (inactive); in experiment [9] it was 14 µM (inactive); in experiment [10], > 100 µM (inactive); in experiment [11], > 100 µM (inactive); in experiment [12] it was > 100 µM (inactive); in experiment [13], 71.1 µM (inactive). Moreover, the GI50 in experiment [14] is 37.8 µM (inactive); in experiment [15], 34.9 µM (inactive); in experiment [16] it was > 100 µM (inactive); in [17], 31.4 µM (inactive); in [18], > 100 µM (inactive); in experiment [19], > 100 µM (inactive).
